# Data: the METLIN SMRT retention time set (Domingo-Almenara et al. 2019)
# Assay: gradient 5% acetonitrile 3 min, to 50% in 2 min, to 85% in 15 min, held 3 min, 100 µL/min
# Settings: column: Zorbax Extend-C18 2.1 x 50 mm; eluents: water / acetonitrile, 0.1% formic acid
# Outline: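 The mobile phases were water and acetonitrile, each with 0.1% formic acid, pumped at 100 μL/min through a Zorbax Extend-C18 column (2.1 × 50 mm, 1.8 μm). Pure standards were injected as mixtures of ~100 molecules and detected by a quadrupole time-of-flight mass spectrometer in positive and negative ionization mode. Retention time came from computationally picked adduct peaks, each inspected by hand.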
row,Compound,RP-LC retention time
1,Cc1nnc(NC(=O)CN2CCc3nc(NC(=O)c4cnccn4)sc3C2)s1,546 s
2,CC1Oc2ccc(-c3csc(NC(=O)COc4ccc(Cl)cc4)n3)cc2N(C)C1=O (stereo not drawn),1070 s
3,COc1ccc(S(=O)(=O)N2CCCC2)cc1C(=O)Nc1cccc2cnccc12,598 s
4,CCc1ccc(CNC(=O)C2CCCN(c3ccc(=O)n(-c4ccc(F)cc4)n3)C2)cc1 (stereo not drawn),910 s
5,CCOC(=O)c1oc2ccccc2c1NC(=O)c1ccccc1S(C)(=O)=O,800 s
6,O=C(NCCc1ccncc1)c1cnn(-c2ccccc2)n1,560 s
7,CCCN(CCC)C1CCc2ccc(O)cc2C1 (stereo not drawn),640 s
8,CCc1ccc(S(=O)(=O)N2CCC3(CC2)NCCN=C3NCc2cccc(F)c2)cc1,772 s
9,Cc1cc(NCC(O)c2ccc([N+](=O)[O-])cc2)nc(-n2nc(C)cc2C)n1 (stereo not drawn),592 s
10,Cc1cccc(NC(=O)N2CCC(OC3CCN(S(C)(=O)=O)CC3)CC2)c1C,718 s
11,Cc1cccc(C)c1Nc1c(-c2ccc(N3CCOCC3)cc2)nc2ncccn12,721 s
12,Cc1cc(=O)n(CC(=O)Nc2ccc3c(c2)OCCO3)c(N2CCCC2)n1,620 s
13,CCOc1ccc(-c2noc(Cn3c(=O)n(CC)c(=O)c4ccccc43)n2)cc1OC,984 s
14,COCCn1ccc2nc(C)c(C(=O)NCCCc3ccco3)cc2c1=O,665 s
15,Cn1c(=O)c(N2CCN(S(=O)(=O)c3cccc(Cl)c3)CC2)nc2ccncc21,677 s
16,O=C(NCCc1cccs1)C1CCN(c2cc(N3CCCCC3)ncn2)CC1,672 s
17,CCc1cccc(NC(=O)Cn2c(=O)c3cc(C)nn3c3ncccc32)c1,767 s
18,CC1=NOC(C)(CNC(=O)NC2CCCC2)C1 (stereo not drawn),633 s
19,O=C(Cn1cccn1)NC1CCc2nnc(C3CC3)n2CC1 (stereo not drawn),543 s

row,Compound,RP-LC retention time
1,CCc1cc(=O)n(CC(=O)Nc2cccc(C)c2)c(N)n1,600 s
2,CCc1ccc(NC(=O)Cn2cnc3nc4c(cc3c2=O)CCCC4)cc1,788 s
3,O=C(COc1ccccc1F)NCC1CCN(Cc2cccs2)CC1,560 s
4,CCOC(=O)C1CCN(Cc2nc3nc(C)cc(N4CCOCC4)n3n2)CC1,576 s
5,CCSc1ccccc1C(=O)NCC1(CO)CC1,640 s
6,CCOc1cccc(CNC(=O)c2cn3c(n2)CCCC3)c1,602 s
7,CCc1ccc(NC(=O)Cn2c(=O)c(CCC(=O)NCC(C)C)nc3ccccc32)cc1,878 s
8,COCc1nc2ccccc2n1CC(=O)N(c1ccccc1)C(C)C,707 s
9,COc1ccc(-c2nnc3n2CCN(Cc2cn(C)nc2C)C3)cc1,552 s
10,CN(C)c1ccc(CNC(=O)c2nnc(-c3ccc(S(=O)(=O)N4CCCC4)cc3)o2)cc1,688 s
11,Cc1ccc2c(c1)C(=O)NC1(CCN(C(=O)Nc3ccc(C)c(C)c3)CC1)N2C,796 s
12,COc1ccc(NC(=O)C2CCN(c3cncnc3N3CCCCC3)CC2)cc1,670 s
13,CC(C)CN1C(=O)CCc2cc(NS(=O)(=O)c3cccs3)ccc21,819 s
14,COc1cc(OC)cc(-n2nnc(-c3nsc(Nc4ccccc4OC)n3)c2C)c1,1050 s
15,CCOC(=O)c1ccc(Nc2ncnc3c2ncn3CC)cc1,760 s
16,CC(=O)N1CCc2cc(-c3ccc(C(=O)NCCN4CCCCCC4)cc3)ccc21,576 s
17,Cc1ccc(N2CCC(NC(=O)Nc3ccccc3Cl)C2=O)cc1C (stereo not drawn),909 s
18,Cc1ccn2cc(C(=O)NCCN3CCc4ccccc4C3)nc2c1,565 s
19,Cc1ccc2c(c1)NC(=O)c1cc(NC(=O)c3ccccc3Br)ccc1O2,846 s
